# In patent US20130244879A1, “USE OF LIPO-CHITOOLIGOSACCHARIDES TO INITIATE EARLY FLOWERING AND FRUIT DEVELOPMENT IN PLANTS AND RELATED METHODS AND COMPOSITIONS” (NOVOZYMES BIOLOGICALS HOLDING A/S, priority 2003, published 2013):
# How the values were obtained:
# Ridgetown canning tomato = assay: Experiment 10: effect of LCO on Ridgetown canning tomato; format: in vivo; details: for Fruit number (on 24 plants) / Fruit number Increase vs. CK (%) / Fruit weight (kg/24 plants) / Fruit weight Increase vs. CK (%): first harvesting
# Description: The experiment was conducted at Ridgetown College, University of Guelph, Ridgetown, Ontario. Tomatoes were transplanted in single twin rows, 7 m in length spaced 1.65 m apart. Treatments of LCO were applied three times, two weeks before flowering (28 days after transplant), two weeks after flowering (52 days after transplant) and six weeks after flowering (69 days after transplant). Spray applications were applied using a specialized, small plot research CO2 sprayer with a two-nozzled, hand-held boom applying 200 L/ha of spray. Rates were determined based on 38 tomato plants per plot, replicated 4 times, equaling 152 plants per treatment. Early fruit was harvested for yield evaluation on Aug. 20, 2003.
# tomato crop = assay: Trial 3: summer field trial, foliar LCO on tomato yield; format: in vivo; details: for advanced fruiting over control: single application
# Description: An investigation was conducted to examine whether foliar applications of LCO led to increased yield in tomato crop production. To determine concentrations or strengths to be applicable, testing was conducted with a logarithmic increase in strength from 1 nanogram (ng) to 1000 ng/plant sprayed once, and on half, twice. The trial results are presented in the following FIGS. 11-13 and Tables 6 and 7. The parameter of interest was ripened fruit which was harvested 2 or 3 times a week, recording each time, both fruit weight and number of fruit per set of replicates. It was known that fruit arise from pollinated flowers and that an increase in the one leads to the other. FIG. 11 records, cumulative harvested (red) fruit per treatment. For the single LCO application it will be seen that the 10 and 100 ng/plant treatments have advanced fruiting by some 10 days over control (horizontal separation in weeks). That advance has allowed the plant to bear and ripen more fruit over the season for these treatments (see FIG. 11 note height over control and Tables 6 and 7 for actual weights and numbers harvested). Table 6 and FIG. 12 record harvested weight and numbers of ripened fruit over season and it can be seen that the average weight of the tomatoes is not different between treatments and control. Thus the increase in harvested weight was due to an increase in numbers harvested, in agreement with actual enumeration.
# Cherry tomato = assay: Experiment 14: LCO soil application on cherry tomatoes; format: in vivo
# Description: Cherry tomato seedlings (5-week old) were transplanted into 5″ pots in the greenhouse. LCO solutions were prepared with water and 50 ml/plant was applied to the soil in the pot after transplantation. Ripened fruit (orange or red) were collected 8 weeks after transplantation.
# [1] = test system: greenhouse-grown tomato plants; assay: Experiments 1 and 2: effect of LCO on tomato flowering; format: in vivo; details: for difference in flowering between LCO treated plants and control: Experiment 2
# Description: Two experiments were performed to investigate effect of LCO on plant's flowering using greenhouse-grown tomato plants.
# hot pepper = assay: Experiment 17: effect of LCO on hot pepper flowering and fruiting; format: in vivo; details: for increased early flowers over control: at 5 weeks; for increased number of early fruits over control: in 5 weeks
# Description: 30-day old seedlings were transplanted into 5″ pots and 20 days later (20 DAT) plants received the first LCO spray at 2 ml/plant (50 ng/plant). The 2nd spray was conducted 3 weeks (41 DAT) after the first. Data was collected 5 weeks (55 DAT) after the first LCO application. […]
# greenhouse tomatoes = assay: Experiment 11: LCO foliar application in greenhouse tomatoes; format: in vivo, tomato; details: 28 days after transplant
# Description: Tomatoes were seeded and transplanted into 10″ pots 30 days later in the greenhouse. Plants were sprayed with 5 ml (50 ng) LCO solution per plant 10 days after transplant and 14 days after transplant (50 ng×2). Flowering data was collected 28 days after transplant. The same plants as FIG. 2-1 were sampled for fruit data 28 days after transplant.
# [2] = applied 2 weeks before and after flowering
# [3] = 1 ng LCO per plant, applied once
# [4] = 1 ng LCO per plant, applied twice
# [5] = 10 ng LCO per plant, applied once
# [6] = 10 ng LCO per plant, applied twice
# [7] = 100 ng LCO per plant, applied once
# [8] = 100 ng LCO per plant, applied twice
# [9] = 1000 ng LCO per plant, applied once
# [10] = 1000 ng LCO per plant, applied twice
# [11] = single application of 10 ng LCO/plant
substance,measurement,setting,value
Lipo-chitooligosaccharides [LCO],increased fruit number,Ridgetown canning tomato; [2],up to 20%
same,increased fruit weight,Ridgetown canning tomato; [2],up to 16%
same,Fruit number (on 24 plants),Ridgetown canning tomato; treatment 0-50-0,209AB
same,Fruit number Increase vs. CK (%),Ridgetown canning tomato; treatment 0-50-0,14.2%
same,Fruit weight (kg/24 plants),Ridgetown canning tomato; treatment 0-50-0,12.598 kg/24 plants
same,Fruit weight Increase vs. CK (%),Ridgetown canning tomato; treatment 0-50-0,16.2%
same,Fruit number (on 24 plants),Ridgetown canning tomato; treatment 0-50-75,191AB
same,Fruit number Increase vs. CK (%),Ridgetown canning tomato; treatment 0-50-75,4.4%
same,Fruit weight (kg/24 plants),Ridgetown canning tomato; treatment 0-50-75,11.352 kg/24 plants
same,Fruit weight Increase vs. CK (%),Ridgetown canning tomato; treatment 0-50-75,4.7%
same,Fruit number (on 24 plants),Ridgetown canning tomato; treatment 50-0-0,206AB
same,Fruit number Increase vs. CK (%),Ridgetown canning tomato; treatment 50-0-0,12.6%
same,Fruit weight (kg/24 plants),Ridgetown canning tomato; treatment 50-0-0,11.916 kg/24 plants
same,Fruit weight Increase vs. CK (%),Ridgetown canning tomato; treatment 50-0-0,9.9%
same,Fruit number (on 24 plants),Ridgetown canning tomato; treatment 50-50-0,219A
same,Fruit number Increase vs. CK (%),Ridgetown canning tomato; treatment 50-50-0,19.7%
same,Fruit weight (kg/24 plants),Ridgetown canning tomato; treatment 50-50-0,12.567 kg/24 plants
same,Fruit weight Increase vs. CK (%),Ridgetown canning tomato; treatment 50-50-0,15.9%
same,Fruit number (on 24 plants),Ridgetown canning tomato; treatment 50-75-0,199AB
same,Fruit number Increase vs. CK (%),Ridgetown canning tomato; treatment 50-75-0,8.7%
same,Fruit weight (kg/24 plants),Ridgetown canning tomato; treatment 50-75-0,11.421 kg/24 plants
same,Fruit weight Increase vs. CK (%),Ridgetown canning tomato; treatment 50-75-0,5.3%
same,Increase in No. of Tomatoes from 1 to 2 applications,tomato crop; 1 ng LCO per plant,21
same,Yield Increase for 2nd Application,tomato crop; 1 ng LCO per plant,0.00 Kg per plant
same,Cumulative Harvest to Sept 23. (24 plant Average),tomato crop; [3],Not as good as Control
same,Cumulative Yield (kg) to Sept 23. Total weight for 24 plants,tomato crop; [3],57.7200 kg
same,Total No. of Tomatoes per treatment,tomato crop; [3],300
same,Yield increase over Control,tomato crop; [3],0.0000 Kg per plant
same,Cumulative Harvest to Sept 23. (24 plant Average),tomato crop; [4],Not as good as Control
same,Cumulative Yield (kg) to Sept 23. Total weight for 24 plants,tomato crop; [4],63.8760 kg
same,Total No. of Tomatoes per treatment,tomato crop; [4],321
same,Increase in No. of Tomatoes from 1 to 2 applications,tomato crop; 10 ng LCO per plant,11
same,Yield Increase for 2nd Application,tomato crop; 10 ng LCO per plant,0.08 Kg per plant
same,Cumulative Harvest to Sept 23. (24 plant Average),tomato crop; [5],3.0093 Kg per plant
same,Cumulative Yield (kg) to Sept 23. Total weight for 24 plants,tomato crop; [5],72.2240 kg
same,Percent Yield inc. over Control,tomato crop; [5],17.7%
same,Total No. of Tomatoes per treatment,tomato crop; [5],363
same,Yield increase over Control,tomato crop; [5],0.4517 Kg per plant
same,Cumulative Harvest to Sept 23. (24 plant Average),tomato crop; [6],3.0905 Kg per plant
same,Cumulative Yield (kg) to Sept 23. Total weight for 24 plants,tomato crop; [6],74.1720 kg
same,Percent Yield inc. over Control,tomato crop; [6],12.6%
same,Total No. of Tomatoes per treatment,tomato crop; [6],374
same,Yield increase over Control,tomato crop; [6],0.3452 Kg per plant
same,Increase in No. of Tomatoes from 1 to 2 applications,tomato crop; 100 ng LCO per plant,−8
same,Yield Increase for 2nd Application,tomato crop; 100 ng LCO per plant,0.06 Kg per plant
same,Cumulative Harvest to Sept 23. (24 plant Average),tomato crop; [7],2.7280 Kg per plant
same,Cumulative Yield (kg) to Sept 23. Total weight for 24 plants,tomato crop; [7],65.4720 kg
same,Percent Yield inc. over Control,tomato crop; [7],6.7%
same,Total No. of Tomatoes per treatment,tomato crop; [7],351
same,Yield increase over Control,tomato crop; [7],0.1703 Kg per plant
same,Cumulative Harvest to Sept 23. (24 plant Average),tomato crop; [8],2.7917 Kg per plant
same,Cumulative Yield (kg) to Sept 23. Total weight for 24 plants,tomato crop; [8],67.0000 kg
same,Percent Yield inc. over Control,tomato crop; [8],1.7%
same,Total No. of Tomatoes per treatment,tomato crop; [8],343
same,Yield increase over Control,tomato crop; [8],0.0463 Kg per plant
same,Increase in No. of Tomatoes from 1 to 2 applications,tomato crop; 1000 ng LCO per plant,35
same,Yield Increase for 2nd Application,tomato crop; 1000 ng LCO per plant,0.35 Kg per plant
same,Cumulative Harvest to Sept 23. (24 plant Average),tomato crop; [9],2.6115 Kg per plant
same,Cumulative Yield (kg) to Sept 23. Total weight for 24 plants,tomato crop; [9],62.6760 kg
same,Percent Yield inc. over Control,tomato crop; [9],2.1%
same,Total No. of Tomatoes per treatment,tomato crop; [9],326
same,Yield increase over Control,tomato crop; [9],0.0538 Kg per plant
same,Cumulative Harvest to Sept 23. (24 plant Average),tomato crop; [10],2.9588 Kg per plant
same,Cumulative Yield (kg) to Sept 23. Total weight for 24 plants,tomato crop; [10],71.0120 kg
same,Percent Yield inc. over Control,tomato crop; [10],7.8%
same,Total No. of Tomatoes per treatment,tomato crop; [10],361
same,Yield increase over Control,tomato crop; [10],0.2135 Kg per plant
same,increase in numbers of tomatoes,tomato crop; [11],~20%
same,yield increase over the season,tomato crop; [11],17%
same,advanced fruiting over control,tomato crop; 10 ng/plant,~10 days
same,advanced fruiting over control,tomato crop; 100 ng/plant,~10 days
same,dose with best fruit enhancement at the early stage,Cherry tomato,10 ng per plant
same,LCO treated plants flowered 3 days earlier than control,[1]; Experiment 1,over 80%
same,shift in time of flowering,[1]; Experiment 1,3 days
same,more plants flowering as compared to control,"[1]; Experiment 1, day 4 of assessment",35%
same,more plants flowering as compared to control,"[1]; Experiment 1, day I of assessment",25%
same,difference in flowering between LCO treated plants and control,[1]; day 3 of assessment,20%
same,difference in flowering between LCO treated plants and control,[1]; initially,10%
same,increased early flowers over control,hot pepper; double applications,≤ 40%
same,increased number of early fruits over control,hot pepper; double applications,≤ 284%
same,increased early flowers over control,hot pepper; single application,up to 5%
same,increased number of early fruits over control,hot pepper; single application,up to 159%
same,tomato early flowering,greenhouse tomatoes; 50 ng/plant single or double,improved tomato early flowering
same,increased fruit set,greenhouse tomatoes; single 50 ng LCO application,approx. 1 fruit/plant
